Reference: paper PMC3822755 (Bioorganic & medicinal chemistry letters, 2013)

Experiments:
[1] = test system: VSV-GP (vesicular stomatitis virus particle bearing the EBOV GP); assay type: cell-based
[2] = test system: VSV-G (VSV bearing its native envelope glycoprotein G); assay type: cell-based, vesicular stomatitis virus; Vero host cells

**Q.** How did the “activity against VSV-GP entry (in words)” value [1] turn out when KKKKGSGC(Chol) ^b [Peptide 3-Chol] was run?
**A.** active

**Q.** And the “inhibition of VSV-GP entry” value [1]?
**A.** > 90%

**Q.** What about the “potency against VSV-GP compared with 1-Chol and 2-Chol” value ([1]; 20 µM) of the same compound?
**A.** much less potent

**Q.** What about the “activity against VSV-G (in words)” value [2] of the same compound?
**A.** active

**Q.** With `CC(C)CCC[C@@H](C)[C@H]1CC[C@H]2[C@@H]3CC=C4C[C@@H](O)CC[C@]4(C)[C@H]3CC[C@]12C` [cholesterol, reference compound] as the compound, how does the “activity against VSV-GP entry (in words)” value [1] read?
**A.** relatively modest effects
